Assay type in all cases: biochemical
In one test the target is T1, TACE (ADAM17) (Homo sapiens, UniProt P78536).
T1 construct: purchased Enzo Life Sciences, Inc. BML-AK310
Kind of test: TACE fluorometric inhibition assay (Enzo kit). The note with it: quenched fluorogenic peptide, ex/em 320 nm/420 nm; read-out: TACE IC50 class. The protocol: (§1) The inhibitory activities of the compounds of the invention were assessed in 96-well microplate format using MMP1, MMP2, MMP9 and MMP13 colorimetric assay kits and TACE fluorometric assay kit from Enzo Life Sciences, Inc. The inhibitory effect of the compounds of the invention on ADAM10 activity were evaluated in 96-well microplate format using fluorometric assay from AnaSpec, Inc.
The TACE Fluorometric Drug Discovery Kit (catalog #BML-AK310) is a complete assay system designed to screen ADAM17 (TACE) inhibitors using a quenched fluorogenic peptide: Mca-PLAQAV-Dpa-RSSSR-NH2. Mca fluorescence is quenched by the Dpa group until cleavage by proteases separates the two moieties leading to an increase in Mca fluorescence.
The inhibitory activity of the compounds of the invention against TACE was tested according to the manufacturer's assay protocol and the fluorescence was monitored at excitation/emission wavelengths=320 nm/420 nm using Tecan Infinite® 200 Pro F Nano^+ microplate reader.
(§2) The normalized values were analyzed using GraphPadPrism 9 for Windows (GraphPad Software, San Diego, CA, USA) software by plotting inhibition curves and determining the IC50 values.
(§3) The calculated IC50 values were divided into the following classes: • A: <50 nM; B: 50-1000 nM; C: >1000-10,000 nM; D: >10,000 nM

Another test deals with T2, MMP13 (Homo sapiens, UniProt P45452).
T2 construct: purchased Enzo Life Sciences, Inc. BML-AK412
Description: MMP-13 colorimetric inhibition assay (Enzo kit). The note with it: colorimetric thiopeptide substrate, absorbance 415 nm; read-out: MMP13 IC50 class. How it is done: as §1
The MMP-13 Colorimetric Drug Discovery Kit (catalog #BML-AK412) is a complete assay system designed to screen inhibitors of matrix metalloproteinase-13 using a thiopeptide as a chromogenic substrate (Ac-PLG-[2-mercapto-4-methylpentanoyl]-LG-OC2H5). The MMP cleavage site peptide bond is replaced by a thioester bond in the thiopeptide. Hydrolysis of this bond by an MMP produces a sulfhydryl group, which reacts with DTNB [5,5′-dithiobis(2-nitrobenzoic acid), Ellman's reagent] to form 2-nitro-5-thiobenzoic acid, that can be detected spectrophotometrically.
(§4) The inhibitory activities of the compounds of the invention against MMP1, MMP2, MMP9 and MMP13 were tested according to the manufacturer's assay protocols and the absorbance at 415 nm was monitored using the Tecan Infinite® 200 Pro F Nano^+ microplate reader.
as §2, §3

The target of a further test is T3, MMP9 (Homo sapiens, UniProt P14780).
T3 construct: purchased Enzo Life Sciences, Inc. BML-AK410
Description: MMP-9 colorimetric inhibition assay (Enzo kit). The note with it: colorimetric thiopeptide substrate, absorbance 415 nm; read-out: MMP9 IC50 class. How it is done: as §1
The MMP-9 Colorimetric Drug Discovery Kit (catalog #BML-AK410) is a complete assay system designed to screen inhibitors of matrix metalloproteinase-9 using a thiopeptide as a chromogenic substrate (Ac-PLG-[2-mercapto-4-methylpentanoyl]-LG-OC2H5). The MMP cleavage site peptide bond is replaced by a thioester bond in the thiopeptide. Hydrolysis of this bond by an MMP produces a sulfhydryl group, which reacts with DTNB [5,5′-dithiobis(2-nitrobenzoic acid), Ellman's reagent] to form 2-nitro-5-thiobenzoic acid, that can be detected spectrophotometrically.
as §4, §2, §3

Another test addresses T4, MMP2 (Homo sapiens, UniProt P08253).
T4 construct: purchased Enzo Life Sciences, Inc. BML-AK408
Description: MMP-2 colorimetric inhibition assay (Enzo kit). The settings on record: colorimetric thiopeptide substrate, absorbance 415 nm; read-out: MMP2 IC50 class. The protocol: as §1
The MMP-2 Colorimetric Drug Discovery Kit (catalog #BML-AK408) is a complete assay system designed to screen MMP-2 inhibitors using a thiopeptide as a chromogenic substrate (Ac-PLG-[2-mercapto-4-methylpentanoyl]-LG-OC2H5). The MMP cleavage site peptide bond is replaced by a thioester bond in the thiopeptide. Hydrolysis of this bond by an MMP produces a sulfhydryl group, which reacts with DTNB [5,5′-dithiobis(2-nitrobenzoic acid), Ellman's reagent] to form 2-nitro-5-thiobenzoic acid, that can be detected spectrophotometrically.
as §4, §2, §3

The next test has as its target T5, MMP1 (Homo sapiens, UniProt P03956).
T5 construct: purchased Enzo Life Sciences, Inc. BML-AK404
T5 sequence (P03956 100-469): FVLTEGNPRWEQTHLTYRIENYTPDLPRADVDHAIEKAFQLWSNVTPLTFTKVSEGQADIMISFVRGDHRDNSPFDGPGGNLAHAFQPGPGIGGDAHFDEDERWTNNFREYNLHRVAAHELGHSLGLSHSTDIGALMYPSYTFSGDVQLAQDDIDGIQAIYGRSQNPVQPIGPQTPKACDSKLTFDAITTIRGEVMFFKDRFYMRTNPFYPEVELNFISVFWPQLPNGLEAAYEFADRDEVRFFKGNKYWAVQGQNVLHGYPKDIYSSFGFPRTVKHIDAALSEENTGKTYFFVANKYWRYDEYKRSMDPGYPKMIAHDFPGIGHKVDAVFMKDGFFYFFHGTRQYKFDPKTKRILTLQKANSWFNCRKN
Description: MMP-1 colorimetric inhibition assay (Enzo kit). The settings on record: colorimetric thiopeptide substrate, absorbance 415 nm; read-out: MMP1 IC50 class. How it is done:
as §1
The MMP-1 Colorimetric Drug Discovery Kit (catalog #BML-AK404) is a complete assay system designed to screen inhibitors of matrix metalloproteinase-1 using a thiopeptide as a chromogenic substrate (Ac-PLG-[2-mercapto-4-methylpentanoyl]-LG-OC2H5). The MMP cleavage site peptide bond is replaced by a thioester bond in the thiopeptide. Hydrolysis of this bond by an MMP produces a sulfhydryl group, which reacts with DTNB [5,5′-dithiobis(2-nitrobenzoic acid), Ellman's reagent] to form 2-nitro-5-thiobenzoic acid, that can be detected spectrophotometrically.
as §4, §2, §3

The source of these data is US20250026761A1, “DIAZABICYCLOOCTANE DERIVATIVES USEFUL AS MATRIX METALLOPROTEINASE INHIBITORS” (VASA THERAPEUTICS SPÓLKA Z OGRANICZONA ODPOWIEDZIALNOSCIA, priority 2021, published 2025).

For orientation: IC50 means the concentration at which inhibition is half-maximal.

T3 sequence (P14780 94-707): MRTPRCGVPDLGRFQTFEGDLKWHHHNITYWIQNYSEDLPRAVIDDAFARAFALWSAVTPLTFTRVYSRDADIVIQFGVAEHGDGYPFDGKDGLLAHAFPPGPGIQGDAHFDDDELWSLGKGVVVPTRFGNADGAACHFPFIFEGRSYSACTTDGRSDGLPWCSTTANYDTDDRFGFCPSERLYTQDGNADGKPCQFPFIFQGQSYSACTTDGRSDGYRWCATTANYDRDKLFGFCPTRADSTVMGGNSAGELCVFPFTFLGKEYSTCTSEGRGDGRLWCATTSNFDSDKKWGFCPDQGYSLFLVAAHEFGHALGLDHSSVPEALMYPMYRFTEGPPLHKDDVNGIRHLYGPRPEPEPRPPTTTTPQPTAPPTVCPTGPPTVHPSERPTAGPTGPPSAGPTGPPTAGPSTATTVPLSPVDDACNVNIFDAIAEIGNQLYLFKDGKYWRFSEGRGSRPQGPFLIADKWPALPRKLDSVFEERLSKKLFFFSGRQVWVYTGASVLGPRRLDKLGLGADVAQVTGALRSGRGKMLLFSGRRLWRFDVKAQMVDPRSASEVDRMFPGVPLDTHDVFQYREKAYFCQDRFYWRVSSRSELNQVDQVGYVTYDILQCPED
T1 sequence (P78536 223-474 limits assumed): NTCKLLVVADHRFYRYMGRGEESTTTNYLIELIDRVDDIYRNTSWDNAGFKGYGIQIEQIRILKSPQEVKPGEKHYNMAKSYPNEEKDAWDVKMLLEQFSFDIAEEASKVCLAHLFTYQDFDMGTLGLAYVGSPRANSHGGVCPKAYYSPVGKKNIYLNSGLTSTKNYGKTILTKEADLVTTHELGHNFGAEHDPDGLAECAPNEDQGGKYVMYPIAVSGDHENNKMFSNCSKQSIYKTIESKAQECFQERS
T4 sequence (P08253 110-452 limits assumed): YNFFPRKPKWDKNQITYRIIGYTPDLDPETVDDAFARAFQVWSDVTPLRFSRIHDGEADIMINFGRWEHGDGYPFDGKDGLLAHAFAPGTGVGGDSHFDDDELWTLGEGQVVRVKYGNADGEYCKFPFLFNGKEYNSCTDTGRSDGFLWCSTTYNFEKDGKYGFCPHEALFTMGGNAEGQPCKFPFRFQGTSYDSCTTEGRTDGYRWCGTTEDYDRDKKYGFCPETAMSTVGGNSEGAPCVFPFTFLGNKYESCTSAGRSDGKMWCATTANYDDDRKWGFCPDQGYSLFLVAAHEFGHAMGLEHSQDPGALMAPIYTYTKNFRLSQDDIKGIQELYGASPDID

For `COCCOC(=O)N1CC2CCC(C(=O)NO)(C1)N2S(=O)(=O)c1ccc(Oc2ccc(F)cc2)nc1` (stereo not shown) [Example 13, 2-methoxyethyl 8-((6-(4-fluorophenoxy)pyridin-3-yl)sulfonyl)-1-(hydroxycarbamoyl)-3,8-diazabicyclo[3.2.1]octane-3-carboxylate], the IC50 at TACE (ADAM17) was 1 to 10 µM; at MMP13 it was 0.05 to 1 µM; at MMP9 it was below 0.05 µM; at MMP2 it was 0.05 to 1 µM; at MMP1 it was 1 to 10 µM.
As for `COCCOC(=O)N1CC2CCC(C(=O)NO)(C1)N2S(=O)(=O)c1ccc(NC(=O)c2ccc(OC)cc2)cc1` (stereo not shown) [Example 17, 2-methoxyethyl 1-(hydroxycarbamoyl)-8-((4-(4-methoxybenzamido)phenyl)sulfonyl)-3,8-diazabicyclo[3.2.1]octane-3-carboxylate], the IC50 on MMP13, at MMP9 and on MMP2 was 0.05 to 1 µM throughout.
Take `COCCOC(=O)N1CC2CCC(C(=O)NO)(C1)N2S(=O)(=O)N1CCC(Oc2ccc(F)cn2)CC1` (stereo not shown) [Example 20, 2-methoxyethyl 8-((4-((5-fluoropyridin-2-yl)oxy)piperidin-1-yl)sulfonyl)-1-(hydroxycarbamoyl)-3,8-diazabicyclo[3.2.1]octane-3-carboxylate]: the IC50 is above 10 µM on TACE (ADAM17); 0.05 to 1 µM on MMP13; 0.05 to 1 µM on MMP9; 0.05 to 1 µM on MMP2; above 10 µM on MMP1.
With `COCCOC(=O)N1CC2CCC(C(=O)NO)(C1)N2S(=O)(=O)N1CCC(Oc2ccncc2)CC1` (stereo not shown) [Example 21, 2-methoxyethyl 1-(hydroxycarbamoyl)-8-((4-(pyridin-4-yloxy)piperidin-1-yl)sulfonyl)-3,8-diazabicyclo[3.2.1]octane-3-carboxylate], the IC50 is above 10 µM on TACE (ADAM17); 0.05 to 1 µM at MMP13; 0.05 to 1 µM on MMP9; below 0.05 µM on MMP2; above 10 µM at MMP1.
`O=C(CN1CCOCC1)N1CC2CCC(C(=O)NO)(C1)N2S(=O)(=O)c1cc(F)c(Oc2ccc(Cl)cc2)c(F)c1` (stereo not shown) [Example 4, 8-((4-(4-chlorophenoxy)-3,5-difluorophenyl)sulfonyl)-N-hydroxy-3-(2-morpholinoacetyl)-3,8-diazabicyclo[3.2.1]octane-1-carboxamide]: the IC50 at MMP13 fell in the range of 1 to 10 µM; at MMP9, 0.05 to 1 µM; on MMP2, 0.05 to 1 µM.
In the case of `COCCOC(=O)N1CC2CCC(C(=O)NO)(C1)N2S(=O)(=O)c1cc(F)c(Oc2ccc(F)cc2)c(F)c1` (stereo not shown) [Example 2, 2-Methoxyethyl 8-((3,5-difluoro-4-(4-fluorophenoxy)phenyl)sulfonyl)-1-(hydroxy-carbamoyl)-3,8-diazabicyclo[3.2.1]octane-3-carboxylate], the figures for the IC50 at MMP13, on MMP9 and at MMP2 were 1 to 10 µM, 0.05 to 1 µM and 0.05 to 1 µM, respectively.
Take `COCCOC(=O)N1CC2CCC(C(=O)NO)(C1)N2S(=O)(=O)c1ccc(OCc2ccc(F)cc2Cl)cc1` (stereo not shown) [Example 15, 2-methoxyethyl 8-((4-((2-chloro-4-fluorobenzyl)oxy)phenyl)sulfonyl)-1-(hydroxycarbamoyl)-3,8-diazabicyclo[3.2.1]octane-3-carboxylate]: the IC50 on MMP13 is 1 to 10 µM; on MMP9, 1 to 10 µM; on MMP2 it was above 10 µM.
For the compound `COCCOC(=O)N1CC2CCC(C(=O)NO)(C1)N2S(=O)(=O)N1CCC(Oc2ccc(Cl)cc2)CC1` (stereo not shown) [Example 19, 2-methoxyethyl 8-((4-(4-chlorophenoxy)piperidin-1-yl)sulfonyl)-1-(hydroxycarbamoyl)-3,8-diazabicyclo[3.2.1]octane-3-carboxylate], the IC50 at TACE (ADAM17) was 1 to 10 µM; at MMP13, below 0.05 µM; on MMP9 it was below 0.05 µM; on MMP2 it was below 0.05 µM; at MMP1, 1 to 10 µM.
As for `COCCOC(=O)N1CC2CCC(C(=O)NO)(C1)N2S(=O)(=O)c1ccc(-c2cccc(F)c2)nc1` (stereo not shown) [Example 9, 2-methoxyethyl 8-((6-(3-fluorophenyl)pyridin-3-yl)sulfonyl)-1-(hydroxycarbamoyl)-3,8-diazabicyclo[3.2.1]octane-3-carboxylate], the half-inhibitory concentration (IC50) lay in the range of 1 to 10 µM at MMP13, 1 to 10 µM at MMP9 and 0.05 to 1 µM on MMP2.
On to `O=C(CN1CCCCC1)N1CC2CCC(C(=O)NO)(C1)N2S(=O)(=O)c1cc(F)c(Oc2ccc(Cl)cc2)c(F)c1` (stereo not shown) [Example 7, 8-((4-(4-chlorophenoxy)-3,5-difluorophenyl)sulfonyl)-N-hydroxy-3-(2-(piperidin-1-yl)acetyl)-3,8-diazabicyclo[3.2.1]octane-1-carboxamide], for which the IC50 lay in the range of 1 to 10 µM on MMP13, 1 to 10 µM at MMP9 and 0.05 to 1 µM on MMP2.
On to `COCCOC(=O)N1CC2CCC(C(=O)NO)(C1)N2S(=O)(=O)c1ccc(Oc2ccc(F)cc2)c(F)c1` (stereo not shown) [Example 5, 2-methoxyethyl 8-((3-fluoro-4-(4-fluorophenoxy)phenyl)sulfonyl)-1-(hydroxycarbamoyl)-3,8-diazabicyclo[3.2.1]octane-3-carboxylate], for which the IC50 at TACE (ADAM17) is above 10 µM; on MMP13 it was below 0.05 µM; on MMP9, below 0.05 µM; on MMP2, below 0.05 µM; on MMP1, above 10 µM.
Take `COCCOC(=O)N1CC2CCC(C(=O)NO)(C1)N2S(=O)(=O)c1ccc(Oc2ccc(C#N)cc2)nc1` (stereo not shown) [Example 18, 2-methoxyethyl 8-((6-(4-cyanophenoxy)pyridin-3-yl)sulfonyl)-1-(hydroxycarbamoyl)-3,8-diazabicyclo[3.2.1]octane-3-carboxylate]: the IC50 at MMP13, at MMP9 and on MMP2 was 0.05 to 1 µM each time.
As for `COCCOC(=O)N1CC2CCC(C(=O)NO)(C1)N2C(=O)c1cc(F)c(Oc2ccc(Cl)cc2)c(F)c1` (stereo not shown) [Example 34, 2-methoxyethyl 8-(4-(4-chlorophenoxy)-3,5-difluorobenzoyl)-1-(hydroxycarbamoyl)-3,8-diazabicyclo[3.2.1]octane-3-carboxylate], the IC50 on MMP13, on MMP9 and at MMP2 was above 10 µM in each case.
